# Measurements reported in patent publication US10898510B2, “Sulphated hyaluronic acids functionalised with dopamine” (priority 2016, dated 2021).
# System: Staphylococcus aureus
# Assay: In vitro inhibition of S. aureus bacterial growth, titanium cylinder functionalized with HAS2-DOPA or HA-DOPA and Gentamicin
# Type: cell-based
# Settings: Daptomycin at the same concentrations instead of Gentamicin
# Protocol: The following were prepared:
# a solution of HA-DOPA (23%, Example 12) in 0.1 M PBS, pH=8; […]
# Identical treatment was applied to the other two titanium cylinders, of equal size, which were sprayed first with the HA-DOPA derivative solution and then with the Gentamicin solution, by the procedures described above.
# Finally, two other titanium cylinders, of identical size, were sprayed with the PBS solution and then with the Gentamicin solution, by the procedures described above.
# Each cylinder (total: 6) was then immersed once in MQ water for 5 seconds, left to air-dry for 15 minutes and inserted in a culture broth (Buffered Peptone Water: peptone 10.0 g/L, sodium chloride 5.0 g/L, anhydrous disodium phosphate 3.6 g/L, potassium phosphate 1.5 g/L, Biokar Diagnostics) inoculated with 600,000,000 CFU/mL of Staphylococcus aureus. The broth was incubated at 37° C., and at pre-set times (6 h, 12 h, 24 h, 48 h, 144 h) 1 mL of supernatant was taken up and diluted scalarly 1:10 (according to the bacterial growth), with sterile saline solution, for plate seeding (PCA—Plate Count Agar: tryptone 5.0 g/L, yeast extract 2.5 g/L, glucose 1.0 g/L, bacteriological agar 12.0 g/L. Manufactured by Biokar Diagnostics). The CFU/mL count was then conducted.
# The percentage bacterial growth inhibition data over time compared with the initial inoculum of 600 million CFU/mL of S. aureus are set out in FIG. 4.
smiles,measurement,value
CCCCCCCCCC(=O)N[C@@H](Cc1c[nH]c2ccccc12)C(=O)N[C@H](CC(N)=O)C(=O)N[C@@H](CC(=O)O)C(=O)N[C@@H]1C(=O)NCC(=O)N[C@@H](CCCN)C(=O)N[C@@H](CC(=O)O)C(=O)N[C@H](C)C(=O)N[C@@H](CC(=O)O)C(=O)NCC(=O)N[C@H](CO)C(=O)N[C@@H]([C@H](C)CC(=O)O)C(=O)N[C@@H](CC(=O)c2ccccc2N)C(=O)O[C@@H]1C [Daptomycin],activity profile in similar experiment with Daptomycin,identical activity profile
